Data published in US20060233873A1, “Dispersion of taste masked crystals or granules of active substances, chewable soft capsules filled with said dispersion, and process for preparing same” (priority 2003, published 2006).

Test: Solubility of the active in lipophilic vehicles at 25° C., HPLC method
Details: oil or lipid
Protocol: In this example, lipophilic vehicles with different solubilizing powers for dextromethorphan HBr were tested.

## COc1ccc2c(c1)[C@]13CCCC[C@@H]1[C@H](C2)N(C)CC3 [dextromethorphan HBr]
In Dimethicone 100 silicone oil
  solubility: < 1 µg/mL
In medium chain triglycerides Mygliol 812N
  solubility: 120 µg/mL
In paraffin oil
  solubility: ~1 µg/mL
In soya oil
  solubility: ~6 µg/mL
